Holding throughout (experiment): pIC50, kinobeads binding competition
One assay has as its target T1, UniProt O00444.
T1 sequence (whole entry): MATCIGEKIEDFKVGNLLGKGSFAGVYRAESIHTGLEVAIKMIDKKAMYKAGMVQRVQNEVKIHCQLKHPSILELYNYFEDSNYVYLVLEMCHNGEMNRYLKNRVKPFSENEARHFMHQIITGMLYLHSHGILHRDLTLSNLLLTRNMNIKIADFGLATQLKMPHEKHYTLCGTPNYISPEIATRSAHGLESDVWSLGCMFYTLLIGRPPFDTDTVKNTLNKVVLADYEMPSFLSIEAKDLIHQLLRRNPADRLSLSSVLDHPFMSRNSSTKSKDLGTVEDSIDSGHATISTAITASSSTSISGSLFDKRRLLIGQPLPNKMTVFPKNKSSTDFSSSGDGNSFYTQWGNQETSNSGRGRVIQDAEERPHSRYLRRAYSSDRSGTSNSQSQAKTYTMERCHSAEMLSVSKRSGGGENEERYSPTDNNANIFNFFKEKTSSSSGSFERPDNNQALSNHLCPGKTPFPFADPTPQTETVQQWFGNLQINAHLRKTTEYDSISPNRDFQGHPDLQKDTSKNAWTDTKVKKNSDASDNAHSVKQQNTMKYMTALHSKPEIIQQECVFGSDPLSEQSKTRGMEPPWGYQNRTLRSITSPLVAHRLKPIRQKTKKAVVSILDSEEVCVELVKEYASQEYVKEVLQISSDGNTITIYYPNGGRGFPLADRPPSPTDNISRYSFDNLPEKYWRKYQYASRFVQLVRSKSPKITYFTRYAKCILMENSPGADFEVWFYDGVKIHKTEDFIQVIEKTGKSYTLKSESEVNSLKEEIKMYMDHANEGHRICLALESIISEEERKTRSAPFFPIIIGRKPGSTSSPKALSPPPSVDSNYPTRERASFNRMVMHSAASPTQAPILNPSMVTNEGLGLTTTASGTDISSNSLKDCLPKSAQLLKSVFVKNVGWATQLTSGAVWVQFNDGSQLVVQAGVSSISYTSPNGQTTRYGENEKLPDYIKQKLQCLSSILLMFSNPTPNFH
The method in brief: (§1)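 Fold changes relative to vehicle, from biological duplicates, were fitted with logistic dose-response models in the R drc package to give pIC50. These fold changes came from TMT10 LC-MS/MS quantification of digested Kinobeads-bound proteins. Compound was applied at nine concentrations (top 30 μM) either to live Jurkat cells in 1:4 steps for 60 min at 37 °C before lysis, or to Jurkat lysate or a 1:1:1:1 HEK293/K-562/HepG2/placenta lysate mix in 1:5 steps for 60 min at 4 °C.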

The next assay addresses PRKAA2 (UniProt P54646). As to conditions: cell material: Lysate mix. The method in brief: as §1
The next assay deals with UniProt P21127. The method in brief: as §1
The target of another assay is UniProt Q5TCX8. The essentials: as §1
For a further assay, the target named is SYK (UniProt P43405). The essentials: as §1
A further assay addresses T2, EPHB6 (UniProt O15197).
T2 sequence (whole entry): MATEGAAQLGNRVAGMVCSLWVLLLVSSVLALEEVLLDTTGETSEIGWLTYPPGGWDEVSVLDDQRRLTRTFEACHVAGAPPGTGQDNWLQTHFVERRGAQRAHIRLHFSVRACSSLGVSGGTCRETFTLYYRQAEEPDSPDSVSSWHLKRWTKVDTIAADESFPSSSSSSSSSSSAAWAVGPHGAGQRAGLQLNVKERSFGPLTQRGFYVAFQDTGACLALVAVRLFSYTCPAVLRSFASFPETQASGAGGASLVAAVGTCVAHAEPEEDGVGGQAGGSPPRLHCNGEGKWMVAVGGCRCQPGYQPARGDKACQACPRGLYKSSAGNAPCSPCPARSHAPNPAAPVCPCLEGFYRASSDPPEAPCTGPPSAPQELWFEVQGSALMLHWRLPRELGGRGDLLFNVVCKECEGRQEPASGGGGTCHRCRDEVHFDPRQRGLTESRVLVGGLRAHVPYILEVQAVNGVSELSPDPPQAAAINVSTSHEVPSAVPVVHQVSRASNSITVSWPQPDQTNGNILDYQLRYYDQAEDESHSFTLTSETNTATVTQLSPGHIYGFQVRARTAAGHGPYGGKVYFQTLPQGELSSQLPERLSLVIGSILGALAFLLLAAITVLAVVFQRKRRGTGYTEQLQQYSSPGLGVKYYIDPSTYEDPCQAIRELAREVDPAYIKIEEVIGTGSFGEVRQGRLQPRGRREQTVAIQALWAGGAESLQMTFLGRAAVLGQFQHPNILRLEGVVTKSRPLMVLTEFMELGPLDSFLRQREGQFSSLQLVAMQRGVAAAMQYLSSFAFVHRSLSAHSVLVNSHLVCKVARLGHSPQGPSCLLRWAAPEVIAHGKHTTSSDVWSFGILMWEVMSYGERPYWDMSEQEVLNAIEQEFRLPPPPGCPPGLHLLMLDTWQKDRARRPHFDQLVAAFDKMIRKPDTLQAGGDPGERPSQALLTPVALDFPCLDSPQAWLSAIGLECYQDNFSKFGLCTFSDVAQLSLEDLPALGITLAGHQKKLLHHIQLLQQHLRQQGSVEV
The essentials: as §1

In a further assay the target is CDK9 (UniProt P50750). The method in brief: as §1
Another assay has as its target T3, ULK3 (UniProt Q6PHR2).
T3 sequence (whole entry): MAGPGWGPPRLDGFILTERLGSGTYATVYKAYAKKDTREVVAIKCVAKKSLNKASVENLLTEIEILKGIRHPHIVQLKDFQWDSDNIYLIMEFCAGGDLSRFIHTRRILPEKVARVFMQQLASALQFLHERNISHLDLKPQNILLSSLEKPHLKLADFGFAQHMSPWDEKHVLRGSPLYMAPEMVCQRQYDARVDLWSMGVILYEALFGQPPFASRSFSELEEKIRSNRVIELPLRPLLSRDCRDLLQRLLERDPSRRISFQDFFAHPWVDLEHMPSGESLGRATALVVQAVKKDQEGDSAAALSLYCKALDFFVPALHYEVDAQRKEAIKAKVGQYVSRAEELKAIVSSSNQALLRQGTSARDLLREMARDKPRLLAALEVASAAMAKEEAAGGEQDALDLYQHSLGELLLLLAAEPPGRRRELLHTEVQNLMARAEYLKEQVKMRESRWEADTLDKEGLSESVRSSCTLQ
The method in brief: as §1

Another assay addresses CDK6 (UniProt Q00534). The essentials:
as §1

UniProt Q5TCX8, sequence (Q5TCX8 whole entry): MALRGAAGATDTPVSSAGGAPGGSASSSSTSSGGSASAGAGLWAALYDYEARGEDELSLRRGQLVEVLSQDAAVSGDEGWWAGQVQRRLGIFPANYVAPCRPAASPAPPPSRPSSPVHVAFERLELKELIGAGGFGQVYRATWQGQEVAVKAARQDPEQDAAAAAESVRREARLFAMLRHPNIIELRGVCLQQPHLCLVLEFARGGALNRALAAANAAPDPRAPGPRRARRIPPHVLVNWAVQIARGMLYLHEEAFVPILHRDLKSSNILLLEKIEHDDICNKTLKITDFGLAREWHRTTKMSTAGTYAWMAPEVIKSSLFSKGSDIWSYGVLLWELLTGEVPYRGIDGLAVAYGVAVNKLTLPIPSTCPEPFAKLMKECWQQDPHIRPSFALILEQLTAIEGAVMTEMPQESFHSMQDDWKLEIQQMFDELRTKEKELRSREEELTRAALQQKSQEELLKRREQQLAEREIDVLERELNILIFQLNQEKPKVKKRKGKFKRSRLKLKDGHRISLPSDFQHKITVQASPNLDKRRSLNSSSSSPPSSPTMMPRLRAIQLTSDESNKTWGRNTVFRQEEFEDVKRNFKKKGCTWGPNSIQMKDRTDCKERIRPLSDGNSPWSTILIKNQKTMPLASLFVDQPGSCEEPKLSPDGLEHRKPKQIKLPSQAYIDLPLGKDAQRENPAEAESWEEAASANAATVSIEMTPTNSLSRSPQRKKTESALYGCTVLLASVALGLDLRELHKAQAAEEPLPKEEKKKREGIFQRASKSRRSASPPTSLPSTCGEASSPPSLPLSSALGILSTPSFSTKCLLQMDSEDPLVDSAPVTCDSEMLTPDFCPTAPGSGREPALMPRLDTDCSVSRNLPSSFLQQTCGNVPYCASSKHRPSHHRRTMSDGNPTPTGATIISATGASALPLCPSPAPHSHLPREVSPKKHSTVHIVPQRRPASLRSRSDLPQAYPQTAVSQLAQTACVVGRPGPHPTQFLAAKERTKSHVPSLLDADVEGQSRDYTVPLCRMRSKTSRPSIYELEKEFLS
UniProt P21127, sequence (P21127 whole entry): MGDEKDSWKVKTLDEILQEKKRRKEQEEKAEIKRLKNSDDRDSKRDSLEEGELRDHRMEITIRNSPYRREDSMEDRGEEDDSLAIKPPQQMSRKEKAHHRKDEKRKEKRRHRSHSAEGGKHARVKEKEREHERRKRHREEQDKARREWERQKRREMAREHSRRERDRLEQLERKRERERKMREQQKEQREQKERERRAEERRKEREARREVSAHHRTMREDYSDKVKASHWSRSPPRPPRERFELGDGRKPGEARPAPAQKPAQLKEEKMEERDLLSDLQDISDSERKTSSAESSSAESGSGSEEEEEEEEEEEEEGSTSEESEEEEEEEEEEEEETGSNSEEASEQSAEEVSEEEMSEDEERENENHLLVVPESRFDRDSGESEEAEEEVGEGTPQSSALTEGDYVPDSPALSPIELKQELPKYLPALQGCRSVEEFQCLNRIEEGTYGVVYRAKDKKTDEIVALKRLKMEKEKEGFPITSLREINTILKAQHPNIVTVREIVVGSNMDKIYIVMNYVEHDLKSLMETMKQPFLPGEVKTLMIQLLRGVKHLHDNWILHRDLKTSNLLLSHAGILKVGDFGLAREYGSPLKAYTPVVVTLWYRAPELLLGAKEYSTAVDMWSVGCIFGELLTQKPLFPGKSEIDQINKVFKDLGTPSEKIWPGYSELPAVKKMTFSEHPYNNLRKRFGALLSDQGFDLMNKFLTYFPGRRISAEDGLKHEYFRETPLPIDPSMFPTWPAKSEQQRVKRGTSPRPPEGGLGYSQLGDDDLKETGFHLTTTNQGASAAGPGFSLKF
CDK9, sequence (P50750 whole entry): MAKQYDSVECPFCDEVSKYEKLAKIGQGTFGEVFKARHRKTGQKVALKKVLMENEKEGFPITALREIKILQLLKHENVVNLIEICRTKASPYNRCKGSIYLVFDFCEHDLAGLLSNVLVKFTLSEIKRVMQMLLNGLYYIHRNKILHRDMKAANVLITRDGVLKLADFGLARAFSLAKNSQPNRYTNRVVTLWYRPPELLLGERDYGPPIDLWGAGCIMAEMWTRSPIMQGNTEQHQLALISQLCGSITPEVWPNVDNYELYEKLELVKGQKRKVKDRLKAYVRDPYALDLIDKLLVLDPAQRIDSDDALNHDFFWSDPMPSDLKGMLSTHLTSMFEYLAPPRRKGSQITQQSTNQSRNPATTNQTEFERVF
PRKAA2, sequence (P54646 whole entry, looked up): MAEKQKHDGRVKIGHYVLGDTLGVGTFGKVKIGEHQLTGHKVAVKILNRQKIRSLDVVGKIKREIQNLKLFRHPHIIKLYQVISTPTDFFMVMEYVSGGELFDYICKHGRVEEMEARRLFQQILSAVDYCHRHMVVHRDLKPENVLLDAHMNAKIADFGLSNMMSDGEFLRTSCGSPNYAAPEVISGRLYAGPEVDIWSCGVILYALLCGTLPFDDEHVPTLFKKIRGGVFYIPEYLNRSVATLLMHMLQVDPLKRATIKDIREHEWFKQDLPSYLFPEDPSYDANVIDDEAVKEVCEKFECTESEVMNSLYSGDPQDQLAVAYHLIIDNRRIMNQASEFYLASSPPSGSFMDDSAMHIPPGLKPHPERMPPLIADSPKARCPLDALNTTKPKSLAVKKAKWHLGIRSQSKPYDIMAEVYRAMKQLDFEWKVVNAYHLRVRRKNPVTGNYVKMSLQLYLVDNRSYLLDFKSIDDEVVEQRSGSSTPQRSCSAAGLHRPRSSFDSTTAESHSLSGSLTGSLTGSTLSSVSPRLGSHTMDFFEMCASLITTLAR
CDK6, sequence (Q00534 whole entry): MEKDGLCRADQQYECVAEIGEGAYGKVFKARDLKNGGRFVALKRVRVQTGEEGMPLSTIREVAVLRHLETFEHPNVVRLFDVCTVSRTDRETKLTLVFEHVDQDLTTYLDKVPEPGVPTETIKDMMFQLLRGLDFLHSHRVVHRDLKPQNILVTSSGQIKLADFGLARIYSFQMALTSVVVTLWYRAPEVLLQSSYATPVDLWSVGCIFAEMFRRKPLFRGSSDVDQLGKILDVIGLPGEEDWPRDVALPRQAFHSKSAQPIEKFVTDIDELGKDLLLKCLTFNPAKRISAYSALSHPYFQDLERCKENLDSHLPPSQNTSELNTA

For `O=C(NCCNC(=O)c1cc(Nc2cc(C3CC3)[nH]n2)nc(N2CCN(Cc3ccc(S(=O)(=O)F)cc3)CC2)n1)OC1CC/C=C/CCC1` (stereo unspecified), the negative logarithm of the IC50 (pIC50) at UniProt O00444 (cell material: Jurkat cells) was 5.5; at UniProt O00444 (cell material: Jurkat lysate), under 4.52; at UniProt O00444 (cell material: Lysate mix), under 4.52; at PRKAA2, 5.5; at UniProt P21127 (cell material: Jurkat cells), under 4.52; at UniProt P21127 (cell material: Jurkat lysate) it was under 4.52. For the same compound, the pIC50 is under 4.52 on UniProt P21127 (cell material: Lysate mix); 4.93 on UniProt Q5TCX8 (cell material: Jurkat cells); under 4.52 on UniProt Q5TCX8 (cell material: Jurkat lysate); under 4.52 on UniProt Q5TCX8 (cell material: Lysate mix); 5.38 on SYK (cell material: Jurkat cells); under 4.52 at SYK (cell material: Jurkat lysate). In addition, the negative-log IC50 (pIC50) was under 4.52 on SYK (cell material: Lysate mix); under 4.52 on EPHB6 (cell material: Jurkat cells); under 4.52 at EPHB6 (cell material: Jurkat lysate); under 4.52 at CDK9 (cell material: Jurkat lysate); under 4.52 on CDK9 (cell material: Lysate mix); 5.86 at ULK3 (cell material: Jurkat cells). Further, the pIC50 on ULK3 (cell material: Jurkat lysate) is under 4.52; at CDK6 (cell material: Jurkat cells), 6.38; at CDK6 (cell material: Jurkat lysate), under 4.52; at CDK6 (cell material: Lysate mix) it was under 4.52.
`Cc1cc(Nc2cc(C(=O)NCCNC(=O)OC3CC/C=C/CCC3)nc(N3CCN(Cc4ccc(S(=O)(=O)F)cc4)CC3)n2)n[nH]1` (stereo unspecified): the pIC50 at UniProt O00444 (cell material: Lysate mix) was under 4.52; at PRKAA2, 5.31; on UniProt P21127 (cell material: Lysate mix), under 4.52; on UniProt Q5TCX8 (cell material: Lysate mix) it was under 4.52; on SYK (cell material: Lysate mix), under 4.52; at EPHB6 (cell material: Lysate mix) it was under 4.52. The pIC50 on CDK9 (cell material: Lysate mix), on ULK3 (cell material: Lysate mix) and at CDK6 (cell material: Lysate mix) was under 4.52 throughout.
`CCNC(=O)c1cc(Nc2cc(C)[nH]n2)nc(N2CCN(Cc3ccc(S(=O)(=O)F)cc3)CC2)n1`: the pIC50 on UniProt O00444 (cell material: Lysate mix) was 5.97; at PRKAA2, 7.35; at UniProt P21127 (cell material: Lysate mix), under 4.52; on UniProt Q5TCX8 (cell material: Lysate mix), under 4.52; at SYK (cell material: Lysate mix), 5.57; on EPHB6 (cell material: Lysate mix), under 4.52. In addition, the pIC50 at CDK9 (cell material: Lysate mix) is under 4.52; on ULK3 (cell material: Lysate mix), 5.63; at CDK6 (cell material: Lysate mix) it was 5.22.
With `C#CCNC(=O)c1cc(Nc2cc(C3CC3)[nH]n2)nc(N2CCN(Cc3ccc(S(=O)(=O)F)cc3)CC2)n1`, the pIC50 is 5.96 at UniProt O00444 (cell material: Jurkat cells); 5.44 on UniProt O00444 (cell material: Jurkat lysate); 6.02 at UniProt O00444 (cell material: Lysate mix); 7.31 on PRKAA2; under 4.52 at UniProt P21127 (cell material: Jurkat cells); under 4.52 at UniProt P21127 (cell material: Jurkat lysate). Moreover, the pIC50 on UniProt P21127 (cell material: Lysate mix) was under 4.52; at UniProt Q5TCX8 (cell material: Jurkat cells), 5.78; on UniProt Q5TCX8 (cell material: Lysate mix) it was 4.8; at SYK (cell material: Jurkat lysate), 5.64; on SYK (cell material: Lysate mix) it was 6.28; at EPHB6 (cell material: Jurkat cells) it was 5.28. Further, the pIC50 at EPHB6 (cell material: Jurkat lysate) is under 4.52; on EPHB6 (cell material: Lysate mix), under 4.52; at CDK9 (cell material: Jurkat cells) it was 6.24; at CDK9 (cell material: Jurkat lysate), 5.81; on CDK9 (cell material: Lysate mix), 6.16; on ULK3 (cell material: Jurkat cells) it was 6.44. For the same compound, the pIC50 on ULK3 (cell material: Jurkat lysate) was 5.88; on ULK3 (cell material: Lysate mix) it was 6.39; at CDK6 (cell material: Jurkat cells), 6.84; at CDK6 (cell material: Jurkat lysate), 5.43; on CDK6 (cell material: Lysate mix) it was 5.58.
`C#CCNC(=O)c1cc(Nc2cc(C)[nH]n2)nc(N2CCN(Cc3ccc(S(=O)(=O)F)cc3)CC2)n1`: the pIC50 on UniProt O00444 (cell material: Lysate mix) was 5.39; on PRKAA2, 6.53; at UniProt P21127 (cell material: Lysate mix), under 4.52; at UniProt Q5TCX8 (cell material: Lysate mix), under 4.52; at SYK (cell material: Lysate mix), 5.52; on EPHB6 (cell material: Lysate mix), under 4.52. The negative logarithm of the IC50 (pIC50) on CDK9 (cell material: Lysate mix) was determined as 4.84; at ULK3 (cell material: Lysate mix) it was 5.49; on CDK6 (cell material: Lysate mix) it was 5.06.
As to `CCNC(=O)c1cc(Nc2cc(C3CC3)[nH]n2)nc(N2CCN(Cc3ccc(S(=O)(=O)F)cc3)CC2)n1`, the pIC50 was 5.81 on UniProt O00444 (cell material: Lysate mix); 7.04 at PRKAA2; under 4.52 at UniProt P21127 (cell material: Lysate mix); 4.65 at UniProt Q5TCX8 (cell material: Lysate mix); 6.22 on SYK (cell material: Lysate mix); under 4.52 at EPHB6 (cell material: Lysate mix). Also, the pIC50 at CDK9 (cell material: Lysate mix) is 4.73; on ULK3 (cell material: Lysate mix), 6.27; at CDK6 (cell material: Lysate mix), 5.52.

(Values after the supplement of paper PMC12076712.)
